In patent US8895588B2, “Pyrazole compound” (Takeda Pharmaceutical Company Limited, priority 2009, dated 2014):

How the values were obtained:
HepG2 = assay: ATP content test; format: cell-based, human; conditions: HepG2, 100 μM, culture for one day, relative value to control (free of compound)
Description: (§1) ATP Content Test Human hepatocellular liver carcinoma cell line HepG2 (ATCC No. HB-8065) was maintained and subcultured at 5% CO2, 37° C. in a Dulbecco's modified Eagle medium (DMEM; Invitrogen) medium containing 10% fetal bovine serum (FBS; TRACE SCIENTIFIC LTD.), 1 mmol/L sodium pyruvate (Invitrogen), 2 mmol/L L-glutamine (Invitrogen), 50 IU/mL penicillin (Invitrogen), 50 μg/mL streptomycin (Invitrogen). Test reagent was prepared to 10 mM with DMSO, and diluted with DMEM medium containing 0.5% FBS, 1 mmol/L sodium pyruvate, 2 mmol/L L-glutamine, 50 IU/ml penicillin, 50 μg/mL streptomycin to the DMSO final concentration of 0.1%. HepG2 (2×10^4 cells/well) was cultured on a 96 well white plate (Costar) together with the test reagent at 5% CO2, 37° C. After culture for one day, the intracellular ATP content was measured with ATPLite™ (PerkinElmer Life Sciences). The results are shown in Table 1 as relative value (%) to the control (free of compound) at 100 μm (n≧3, mean±SD).

anesthetized rat = assay: Histamine-stimulated acid secretion suppression test using anesthetized rat; format: in vivo; conditions: 1 mg/kg i.v., anesthetized SD rat, 3 hr after histamine
Description: Histamine-Stimulated Acid Secretion Suppression Test Using Anesthetized Rat 7-Week-old Jcl: male SD rats were fasted for about 24 hr and used for the experiment. Under urethane (1.2 g/kg, i.p.) anesthesia, the abdomen was incised along the middle-spinal line and the pyloric ring was ligated. Test compound (1 mg/kg) was intravenously administered, the abdominal incision was sutured, and histamine dihydrochloride (30 mg/kg/10 mL) dissolved in physiological saline was subcutaneously administered. After 3 hr from histamine administration, the rats were killed with carbon dioxide gas. The stomach was isolated and the accumulated gastric fluid was collected. The gastric fluid amount was measured and the acid level was measured using acid titration apparatus COM-555 (HIRANUMA SANGYO Co., Ltd.), and the product thereof was taken as the acid secretion level. The acid secretion suppressive rate of the test compound was determined from the comparison with control.

Caspase-3/7 = Caspase-3/7 activity test; format: cell-based, human; conditions: HepG2, 100 μM, culture for one day, relative to staurosporine maximum as 100%, no test reagent as 0%
Description: as §1, with “Human” for “ATP Content Test Human”, “mean±SD). Caspase-3/7 Activity Test The cells were cultured for one day according to a method similar to the method of Experimental Example 3, and the intracellular Caspase-3/7 activity was measured by Caspase-Glo 3/7 Assay (Promega). The results are shown in Table 1 as relative activity (%) of each test reagent when the maximum value of Caspase-3/7 activity on exposure to staurosporine as 100%, and activity without addition of test reagent as 0% (n≧3, mean±SD).” for “mean±SD).”

H^+/K^+-ATPase = biological target: T1, H^+/K^+-ATPase (Sus scrofa, UniProt P19156); assay: Proton potassium-adenosine triphosphatase (H+,K+-ATPase) inhibitory activity test; format: biochemical; conditions: swine gastric mucosa microsomal fraction, pH 6.5, 37° C.
T1 construct: The obtained microsomal fraction was used as proton, potassium-adenosine triphosphatase preparations; from tissue; host or cells: swine stomach, microsomal fraction of gastric mucosa
T1 sequence (P19156 whole entry): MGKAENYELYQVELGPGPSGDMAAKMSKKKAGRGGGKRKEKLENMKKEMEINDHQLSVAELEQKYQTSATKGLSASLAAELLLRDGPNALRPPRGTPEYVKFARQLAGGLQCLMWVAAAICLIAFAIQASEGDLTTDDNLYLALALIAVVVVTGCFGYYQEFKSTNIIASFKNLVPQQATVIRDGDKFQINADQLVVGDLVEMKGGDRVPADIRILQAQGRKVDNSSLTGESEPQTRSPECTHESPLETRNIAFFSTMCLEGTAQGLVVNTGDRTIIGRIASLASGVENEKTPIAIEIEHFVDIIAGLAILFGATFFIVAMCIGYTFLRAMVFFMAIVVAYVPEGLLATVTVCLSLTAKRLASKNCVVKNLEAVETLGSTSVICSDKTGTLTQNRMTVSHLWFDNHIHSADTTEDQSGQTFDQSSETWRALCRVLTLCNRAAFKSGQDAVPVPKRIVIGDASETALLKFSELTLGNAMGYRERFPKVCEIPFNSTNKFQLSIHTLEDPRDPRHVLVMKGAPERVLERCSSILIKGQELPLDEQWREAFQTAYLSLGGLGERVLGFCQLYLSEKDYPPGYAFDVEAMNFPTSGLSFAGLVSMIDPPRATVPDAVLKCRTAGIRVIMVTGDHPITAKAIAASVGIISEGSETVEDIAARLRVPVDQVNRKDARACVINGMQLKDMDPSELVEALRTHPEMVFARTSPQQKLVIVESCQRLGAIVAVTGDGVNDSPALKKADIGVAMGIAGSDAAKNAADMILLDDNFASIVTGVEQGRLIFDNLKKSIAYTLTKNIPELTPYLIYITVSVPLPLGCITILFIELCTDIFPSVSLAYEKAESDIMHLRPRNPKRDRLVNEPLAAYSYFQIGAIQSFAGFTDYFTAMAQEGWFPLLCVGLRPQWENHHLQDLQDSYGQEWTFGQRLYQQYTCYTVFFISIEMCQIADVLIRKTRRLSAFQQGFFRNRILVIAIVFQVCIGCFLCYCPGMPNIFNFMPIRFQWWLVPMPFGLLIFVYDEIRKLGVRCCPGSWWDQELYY
T1 sequence (P18434 whole entry partner): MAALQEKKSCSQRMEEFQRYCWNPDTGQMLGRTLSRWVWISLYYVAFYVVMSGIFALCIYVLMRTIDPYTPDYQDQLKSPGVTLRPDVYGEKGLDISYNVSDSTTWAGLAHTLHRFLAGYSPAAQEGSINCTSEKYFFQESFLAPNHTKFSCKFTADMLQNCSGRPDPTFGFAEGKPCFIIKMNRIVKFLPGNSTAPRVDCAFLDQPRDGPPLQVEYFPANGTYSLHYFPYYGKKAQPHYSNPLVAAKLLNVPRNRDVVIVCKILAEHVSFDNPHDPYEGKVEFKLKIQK
Description: Proton Potassium-Adenosine Triphosphatase (H^+,K^+-ATPase) Inhibitory Activity Test According to the method of Wallmark et al. [Biochim. Biophys. Acta, 728, 31 (1983)], a microsomal fraction of gastric mucosa was prepared from the stomach of swine. First, the stomach was removed, washed with tap water, and immersed in 3 mol/L sodium chloride, and the surface of the mucosa was wiped with a paper towel. The gastric mucosa was removed, minced, and homogenized in a 0.25 mol/L sucrose solution (pH 6.8) containing 1 mmol/L EDTA and 10 mmol/L tris-hydrochloric acid using polytron (Kinematica). The obtained homogenate was centrifuged at 20,000×g for 30 min and the supernatant was centrifuged at 100,000×g for 90 min. The precipitate was suspended in 0.25 mol/L sucrose solution, the suspension was superimposed on a 0.25 mol/L sucrose solution containing 7.5% Ficoll, and centrifuged at 100,000×g for 5 hr. The fraction containing the interface between the both layers was recovered, and centrifugally washed with 0.25 mol/L sucrose solution. The obtained microsomal fraction was used as proton, potassium-adenosine triphosphatase preparations. To 50 mmol/L HEPES-Tris buffer (5 mmol/L magnesium chloride, 10 mmol/L potassium chloride, 10 μmol/L valinomycin, pH=6.5, 40 μL) containing 2.5 μg/mL enzyme preparation based on the protein concentration was added a test compound (5 μL) dissolved in 10% dimethyl sulfoxide solution, and the mixture was incubated at 37° C. for 30 min. A 2 mmol/L adenosine triphosphate tris salt solution (50 mmol/L HEPES-tris buffer (5 mmol/L magnesium chloride, pH 6.5), 5 μL) was added to start an enzyme reaction. The enzyme reaction was performed at 37° C. for 20 min, and then a malachite green solution (a mixture of 0.12% malachite green sulfate (2.5 mol/L) solution, 7.5% ammonium molybdate and 11% Tween 20 at a ratio of 100:25:2, 15 μL) was added to stop the reaction. The reaction mixture was stood at room temperature for 15 min, and the resulting reaction product of inorganic phosphorus and malachite green was measured by colorimetric quantification at a wavelength of 610 nm. In addition, the amount of inorganic phosphoric acid in a reaction solution free of potassium chloride was also measured in the same manner, and the value was extracted from that in the presence of potassium chloride, whereby the proton, potassium-adenosine triphosphatase activity was measured. The inhibitory rate (%) was determined from the activity value of the control and that at each concentration of the test compound, and 50% inhibitory concentration (IC50) to proton, potassium-adenosine triphosphatase was determined.

| ATP content (%, 100 μM) (HepG2) [%] | Caspase-3/7 activity (%, 100 μM) (Caspase-3/7) [%] | IC50 (H^+/K^+-ATPase) [nM] | Structure (SMILES) | acid secretion inhibitory rate (%, 1 mg/kg, intravenous administration, rat) (anesthetized rat) [%] |
| --- | --- | --- | --- | --- |
| 95.9 | 0.1 | 120 | CNCc1cc(S(=O)(=O)c2ccc(F)cc2)n(-c2cccnc2F)n1.Cl [Example 1, 1-{5-[(4-fluorophenyl)sulfonyl]-1-(2-fluoropyridin-3-yl)-1H-pyrazol-3-yl}-N-methylmethanamine hydrochloride] | 98 |
|  |  | 350 | CNCc1cc(S(=O)(=O)c2ccc(OC)cc2)n(-c2cccnc2F)n1.Cl [Example 2, 1-{1-(2-fluoropyridin-3-yl)-5-[(4-methoxyphenyl)sulfonyl]-1H-pyrazol-3-yl}-N-methylmethanamine hydrochloride] | 82 |
| 90.1 | −0.2 | 88 | CNCc1cc(S(=O)(=O)c2cccc(C)c2)n(-c2cccnc2F)n1.Cl [Example 3, 1-{1-(2-fluoropyridin-3-yl)-5-[(3-methylphenyl)sulfonyl]-1H-pyrazol-3-yl}-N-methylmethanamine hydrochloride] | 95 |
| 98.5 | 1.0 | 230 | CNCc1cc(S(=O)(=O)c2cccc(C#N)c2)n(-c2cccnc2F)n1.Cl [Example 4, 3-({1-(2-fluoropyridin-3-yl)-3-[(methylamino)methyl]-1H-pyrazol-5-yl}sulfonyl)benzonitrile hydrochloride] | 99 |
